Reference: patent US8088806B2 (Achillion Pharmaceuticals, Inc., priority 2005, dated 2012)

The molecules below were run on HCV replicon (assay: Replicon based assay of HCV replication inhibition (NPT ELISA)). Conditions: Hepatitis C virus, replicon based assay of HCV replication inhibition; Table IV; read-out: Activity.
Format: cell-based, Hepatitis C virus
Procedure, shortened: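 Huh-7 cells carrying a bicistronic HCV replicon (neo, EMCV-IRES-driven NS3–NS5B) treated overnight after seeding with usually 6 concentrations, 10 to 0.03 micromolar, for three days at 37° C without G418. Replication read as NPT level by captured ELISA; matched-DMSO wells and interferon alpha as controls.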

Compound | EC50
O=C(O)Cc1ccc(-c2csc(Nc3ccc(OCCCc4ccco4)c(C(F)(F)F)c3)n2)s1 [compound 943, 2-(5-(2-(4-(3-(furan-2-yl)propoxy)-3-(trifluoromethyl)phenylamino)thiazol-4-yl)thiophen-2-yl)acetic acid] | < 1000 nM
CCOC(=O)Cc1ccc(-c2csc(Nc3ccc(OCCCc4ccco4)c(C(F)(F)F)c3)n2)s1 [compound 944, ethyl 2-(5-(2-(4-(3-(furan-2-yl)propoxy)-3-(trifluoromethyl)phenylamino)thiazol-4-yl)thiophen-2-yl) acetate] | < 1000 nM
Fc1sc(Nc2ccc(OCCCC3CCCC3)c(C(F)(F)F)c2)nc1-c1cccnc1 [compound 945, N-(4-(3-cyclopentylpropoxy)-3-(trifluoromethyl)phenyl)-5-fluoro-4-(pyridin-3-yl)thiazol-2-amine] | < 1000 nM
CCCCCCCCOc1ccc(Nc2nc(-c3cnc(OC)nc3)c(F)s2)cc1C(F)(F)F [compound 946, 5-fluoro-N-(3-(trifluoromethyl)-4-(octyloxy)phenyl)-4-(2-methoxypyrimidin-5-yl)thiazol-2-amine] | < 1000 nM
Fc1ccc(CCCCOc2ccc(Nc3nc(-c4cccnc4)cs3)cc2C(F)(F)F)cc1 [compound 947, N-(4-(4-(4-fluorophenyl)butoxy)-3-(trifluoromethyl)phenyl)-4-(pyridin-3-yl)thiazol-2-amine] | < 1000 nM
Cc1ccc(C#CCCOc2ccc(Nc3nc(-c4cccnc4)cs3)cc2C(F)(F)F)cc1 [compound 948, N-(4-(4-p-tolylbut-3-ynyloxy)-3-(trifluoromethyl)phenyl)-4-(pyridin-3-yl)thiazol-2-amine] | < 1000 nM
Cc1cccc(C#CCCOc2ccc(Nc3nc(-c4cccnc4)cs3)cc2C(F)(F)F)c1 [compound 949, N-(4-(4-m-tolylbut-3-ynyloxy)-3-(trifluoromethyl)phenyl)-4-(pyridin-3-yl)thiazol-2-amine] | < 1000 nM
CCCCCOc1ccc(Nc2nc(-c3cccnc3)c(F)s2)cc1C(F)(F)F [compound 950, 5-fluoro-N-(3-(trifluoromethyl)-4-(pentyloxy)phenyl)-4-(pyridin-3-yl)thiazol-2-amine] | < 1000 nM
CCCCCCCCS(=O)(=O)c1ccc(Nc2nc(-c3cccnc3)cs2)cc1 [compound 951, N-(4-(octylsulfonyl)phenyl)-4-(pyridin-3-yl)thiazol-2-amine] | < 1000 nM
CCCCCCCCS(=O)(=O)c1ccc(Nc2nc(-c3cccnc3)cs2)cc1C(F)(F)F [compound 952, N-(3-(trifluoromethyl)-4-(octylsulfonyl)phenyl)-4-(pyridin-3-yl)thiazol-2-amine] | < 1000 nM
CCCCCCCS(=O)(=O)CCc1ccc(Nc2nc(-c3cccnc3)cs2)cc1 [compound 953, N-(4-(2-(heptylsulfonyl)ethyl)phenyl)-4-(pyridin-3-yl)thiazol-2-amine] | 1000 to 10000 nM
